Experimental data published in paper PMC3617124 (Nature chemical biology, 2012).

Tests used:
Bax^−/− Bak^−/− MEFs = assay: cell viability assay; assay type: cell-based, mouse; settings: 24 h, CellTiter-Glo
Bax^−/− MEFs = assay: cell viability assay; assay type: cell-based, mouse; settings: 24 h, CellTiter-Glo
MCL-1ΔNΔC = MCL-1ΔNΔC (Homo sapiens, UniProt Q07820); assay: competitive FPA, MCL-1ΔNΔC; assay type: binding; settings: even at 50-μM dosing
BAKΔC = assay: competitive FPA, BAKΔC; assay type: binding
BCL-XLΔC = BCL-XLΔC (Homo sapiens, UniProt Q07817); assay: competitive FPA, BCL-XLΔC; assay type: binding; settings: even at 50-μM dosing
BFL-1/A1ΔC = biological target: T1, BFL-1/A1ΔC (Homo sapiens, UniProt Q16548); assay: competitive FPA, BFL-1/A1ΔC; assay type: binding; settings: even at 50-μM dosing
T1 sequence (Q16548 1-153 limits assumed): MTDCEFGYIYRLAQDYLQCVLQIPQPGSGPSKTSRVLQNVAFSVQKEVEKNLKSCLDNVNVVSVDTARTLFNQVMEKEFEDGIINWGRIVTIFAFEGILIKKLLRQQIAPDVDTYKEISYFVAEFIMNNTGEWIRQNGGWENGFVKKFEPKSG

Bak^−/− MEFs [1] = assay: mitochondrial cytochrome c release; assay type: cell-based, mouse; settings: 15 h, supernatant and pellet western blot
Bak^−/− MEFs [2] = assay: cell viability assay; assay type: cell-based, mouse; settings: 24 h, CellTiter-Glo
Bax^−/− and Bak^−/− MEFs = assay: apoptotic response to standard proapoptotic stimuli; assay type: cell-based, mouse

MCL-1ΔNΔC, sequence (Q07820 172-327, stated change not applied): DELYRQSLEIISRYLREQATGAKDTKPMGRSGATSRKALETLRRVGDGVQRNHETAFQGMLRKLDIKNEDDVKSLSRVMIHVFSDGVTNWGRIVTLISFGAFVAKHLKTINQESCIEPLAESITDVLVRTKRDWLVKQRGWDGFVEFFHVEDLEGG
BCL-XLΔC, sequence (Q07817 1-212 limits assumed, stated change not applied): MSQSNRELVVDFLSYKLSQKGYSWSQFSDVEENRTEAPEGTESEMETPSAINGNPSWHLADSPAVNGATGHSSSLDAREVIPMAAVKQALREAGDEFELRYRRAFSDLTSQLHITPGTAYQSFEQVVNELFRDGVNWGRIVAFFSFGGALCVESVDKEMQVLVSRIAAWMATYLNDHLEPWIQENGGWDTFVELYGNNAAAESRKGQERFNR

SMILES: CCOc1ccccc1NN=C1C(=O)N(c2nc(-c3ccccc3)cs2)N=C1C [BAM7, 4-(2-(2-ethoxyphenyl) hydrazono)-3-methyl-1-(4-phenylthiazol-2-yl)-1H-pyrazol-5(4H)-one]
- viability of Bax−/− Bak−/− MEFs (Bax^−/− Bak^−/− MEFs): did not affect the viability
- viability of Bax−/− MEFs (Bax^−/− MEFs): no effect
- competitive binding interaction with MCL-1ΔNΔC (MCL-1ΔNΔC): little to no
- competitive binding interaction with BAKΔC (BAKΔC; even at 50-μM dosing): little to no
- competitive binding interaction with BCL-XLΔC (BCL-XLΔC): little to no
- competitive binding interaction with BFL-1/A1ΔC (BFL-1/A1ΔC): little to no
- mitochondrial cytochrome c release (Bak^−/− MEFs [1]): dose-responsive mitochondrial cytochrome c release
- viability of Bak−/− MEFs (Bak^−/− MEFs [2]): dose- and time-responsively impaired the viability

SMILES: CN[C@@H]1C[C@H]2O[C@@](C)([C@@H]1OC)n1c3ccccc3c3c4c(c5c6ccccc6n2c5c31)C(=O)NC4 [staurosporine]
- apoptotic response in Bax−/− versus Bak−/− MEFs (Bax^−/− and Bak^−/− MEFs): equivalent apoptotic response

SMILES: CC[C@H](C)[C@H](NC(C)=O)C(=O)N[C@@H](Cc1c[nH]c2ccccc12)C(=O)N[C@H](C(=O)N[C@@H](C)C(=O)N[C@@H](CCC(N)=O)C(=O)N[C@@H](CCC(=O)O)C(=O)N[C@@H](CC(C)C)C(=O)N[C@@H](CCCNC(=N)N)C(=O)N[C@@]1(C)CCCC=CCCC[C@@](C)(C(=O)N[C@@H](Cc2ccccc2)C(=O)N[C@@H](CC(N)=O)C(=O)N[C@@H](C)C(=O)N[C@@H](Cc2ccc(O)cc2)C(=O)N[C@@H](Cc2ccc(O)cc2)C(=O)N[C@@H](C)C(=O)N[C@@H](CCCNC(=N)N)C(=O)N[C@@H](CCCNC(=N)N)C(N)=O)NC(=O)[C@H](CC(=O)O)NC(=O)CNC(=O)[C@H]([C@@H](C)CC)NC1=O)[C@@H](C)CC [BIM SAHB, reference compound]
- IC50 (BAKΔC; read-out: IC50, competition with FITC–BIM SAHB for BAKΔC, competitive FPA): 0.827 µM

SMILES: COc1cc([C@@H]2c3cc4c(cc3[C@@H](O[C@@H]3O[C@@H]5CO[C@@H](C)O[C@H]5[C@H](O)[C@H]3O)[C@H]3COC(=O)[C@H]23)OCO4)cc(OC)c1O [etoposide]
- apoptotic response in Bax−/− versus Bak−/− MEFs (Bax^−/− and Bak^−/− MEFs): equivalent apoptotic response
